One experiment relates to COS Cell. The experiment in a line: COS Cell IC50 (Cell-Based Assay). The method, then: (§1) FPT IC50 (inhibition of farnesyl protein transferase, in vitro enzyme assay), COS Cell IC50 (Cell-Based Assay), GGPT IC50 (inhibition of geranylgeranyl protein transferase, in vitro enzyme assay), Cell Mat Assay, and anti-tumor activity (in vivo anti-tumor studies) are determined by the assay procedures described in WO 95/10516.

Experiment [1] addresses farnesyl protein transferase (Homo sapiens, UniProt P49354+P49356). Description: FPT IC50 (inhibition of farnesyl protein transferase, in vitro enzyme assay). Type of experiment: biochemical. The method, then: as §1

As usually defined, the IC50 is the concentration that inhibits the measured activity by half. A high value points to weaker potency. `O=C1N[C@H](C(=O)N2CCC(CC(=O)N3CCC([C@H]4c5ncc(Br)cc5CCc5cc(Cl)cc(Br)c54)CC3)CC2)CO1` [Example 3]: the figures for the IC50 (in the experiment with COS Cell; in experiment [1]) were 7 nM and 2.3 nM, respectively.

As for `O=C1NCC(CC(=O)N2CCC(C3c4ncc(Br)cc4CCc4cc(Cl)cc(Cl)c43)CC2)CO1` (centres unmarked) [Example 1, 4-(3-Bromo-8,10-dichloro-6,11-dihydro-5H-benzo[5,6]cyclohepta[1,2-b]pyridin-11-yl)-1-[(tetrahydro-2-oxo-2H-1 3-oxazin-5-yl)acetyl]piperidine], the values for the IC50 (with COS Cell; in experiment [1]) were 50 nM and 15 nM, respectively.

Turning to `O=C1NC[C@@H](C(=O)N2CCC(CC(=O)N3CCC([C@H]4c5ncc(Br)cc5CCc5cc(Cl)cc(Br)c54)CC3)CC2)N1` [Example 4], the IC50 is 33 nM with COS Cell and 1.8 nM in experiment [1].

As for `O=C1NCC(CC(=O)N2CCC(C3c4ncc(Br)cc4CCc4cc(Cl)cc(Br)c43)CC2)CO1` (centres unmarked) [Example 2, 4-(3,10-Dibromo-8-chloro-6,11-dihydro-5H-benzo[5,6]cyclohepta[1,2-b]pyridin-11-yl)-1-[(tetrahydro-2-oxo-2H-1,3-oxazin-5-yl)acetyl]piperidine], the IC50 came out at 9 nM in the experiment on COS Cell and 3.98 nM in experiment [1].

For the origin of these results see patent US5939416A, “Benzo (5,6) cycloheptapyridine compounds useful as farnesyl protein transferase inhibitors” (Schering Corporation, priority 1997, dated 1999).
